Assay [1] has as its system FRDAkd mice. In words: Survival of FRDAkd mice after FXN knockdown (DOX). The settings on record: combination versus individual treatment. In kind it is in vivo, mouse. The protocol:
FIG. 4. […] No mortality was observed FRDAkd mice (DOX) treated with quercetin, taurine, and EGCG. FRDAkd mice were treated with doxycycline (DOX for FXN knockdown) or with doxycycline plus 100 mg/kg/day taurine, 35 mg/kg/day quercetin, and 4.6 mg/kg/day EGCG, and 0.5 mg/kg/day of ferrous sulfate for 16 weeks. N=10 animals per group.

Assay [2] relates to NRF2. The settings on record: FRDA patients with moderate dysfunction (Lynch D R et al. 2021); cited from earlier work.
The conditions of assay [3]: previous studies (Lesjak M et al. 2019); cited from earlier work.
For assay [4], the system named is NRF2. Description: NRF2 expression in FRDA patient fibroblasts (Western blot, qPCR). The assay is classed as cell-based, human. The source says:
(§1) FIG. 2B. […] N=3. One-way ANOVA and Welch's t-test, ±SEM. *p≤0.05, **p≤0.01, ***p 0.001.
(§2) FIG. 3A-B. Western blot analysis of FXN and NRF2 in FRDA cells and FRDAkd mice after quercetin treatment.
For orientation: A western blot detects proteins with antibodies after separation by electrophoresis.

For assay [5], the system named is FXN. In words: FXN expression in tissues of FRDAkd mice (Western blot). Particulars: for expression of FXN (Western blot): 35 mg/kg/day quercetin, 625 mg/kg doxycycline. In kind it is in vivo, mouse. As to the method:
as §2
(§3) FIG. 3C-D. Western blot analysis of FXN and NRF2 in FRDA cells and FRDAkd mice after quercetin treatment. […] Tg Low Dox animals were treated with 625 mg/kg doxycycline (FXN knockdown) and Tg Low Dox+Quercetin animal was provided with 625 mg/kg doxycycline plus 35 mg/kg/day of quercetin. […] Overall, quercetin increased the expression of FXN and NRF2 in both in vitro and in vivo conditions.

Assay [6] has as its system FXN. Description: FXN expression in FRDA patient fibroblasts (Western blot, qPCR). The assay is classed as cell-based, human. As to the method:
FIG. 2A. […] Expression levels were determined using Real-time PCR and normalized to Hprtl. Experiments were conducted in triplicates and values expressed as mean±SEM. One-way ANOVA and 0.05**
as §1, §2, §3

Assay [7] relates to NRF2. In words: NRF2 expression in tissues of FRDAkd mice (Western blot). In kind it is in vivo, mouse. The settings on record: for expression of NRF2 (Western blot): 35 mg/kg/day quercetin, 625 mg/kg doxycycline. As to the method:
as §2, §3

In assay [8] the test system is iron metabolism-related genes. Description: Expression of iron metabolism-related genes in cell lines (Real-time PCR). Particulars: various cell lines, including FRDA patient fibroblast cell lines. In kind it is cell-based, human. As to the method:
FIG. 2A. Graphs illustrating expression levels of frataxin (FXN) and various iron metabolism-related genes in control fibroblasts (age and sex matched) or fibroblasts from a patient with Friedreich's Ataxia (FRDA) treated with vehicle or 75 μM quercetin. Expression levels were determined using Real-time PCR and normalized to Hprtl. Experiments were conducted in triplicates and values expressed as mean±SEM. One-way ANOVA and 0.05**

For assay [9], the system named is FXN. The settings on record: phase 3 randomized controlled trial, FRDA; cited from earlier work.
The mark [10] stands for this setting: FRDA fibroblast cell line, 24 hours quercetin, 75 μM and 100 μM.
Setting [11] is: FRDA patient fibroblast cell lines (in vitro), summary statement.
Setting [12] is: fibroblasts from patients with FRDA, quercetin dose series.
The mark [13] stands for this setting: several tissues from quercetin-treated FRDAkd mice (in vivo), summary statement.

Entries after “also recorded” stand apart in the source; their conditions may differ.

`O=C(O[C@@H]1Cc2c(O)cc(O)cc2O[C@@H]1c1cc(O)c(O)c(O)c1)c1cc(O)c(O)c(O)c1` [EGCG, (2R,3R)-3′,4′,5,5′,7-Pentahydroxyflavan-3-yl 3,4,5-trihydroxybenzoate]: in assay [1], the “survival in mouse FRDA models” value is listed as “did not improve survival rates”.

For the molecule `CC1(C)CC[C@]2(NC(=O)C(C)(F)F)CC[C@]3(C)[C@H](C(=O)C=C4[C@@]5(C)C=C(C#N)C(=O)C(C)(C)[C@@H]5CC[C@]43C)[C@@H]2C1` [omaveloxolone], the neurological function entry in [2] is reported as “improved”.

Turning to `O=c1c(O)c(-c2ccc(O)c(O)c2)oc2cc(O)cc(O)c12` [quercetin, 3,3′,4′,5,7-Pentahydroxyflavone], the “serum and tissue iron” value in [3] is given as “depletion”. Besides, the “expression of NRF2 (Western blot)” value is reported as “Increased expression” in assay [4] (setting [10]); “Increased expression” in assay [7] (FRDAkd mice heart, eight weeks); “Increased expression” in [7] (FRDAkd mice liver, three weeks). Moreover, the NRF2 expression entry in assay [4] (setting [11]) and in assay [7] (setting [13]) was “increase; also recorded: enhanced” in each case. The “NRF2 marker gene expression (qPCR)” value in assay [4] (setting [12]) was “dose-dependent effects”. Besides, the “expression of FXN (Western blot)” value is recorded as “Increased expression” in assay [5] (FRDAkd mice heart, eight weeks); “Increased expression” in assay [5] (FRDAkd mice liver, three weeks); “Increased expression” in [6] (setting [10]). Also, the FXN expression entry in assay [5] (setting [13]) and in [6] (setting [11]) was “increase; also recorded: enhanced” throughout. The “survival in mouse FRDA models” value in assay [1] is recorded as “did not improve survival rates”. For the same molecule, the “expression of FXN (Western blot, independent replication)” value in assay [6] (FRDA fibroblast cell line, 24 hours quercetin, 7 μM dose) is listed as “increased expression”. In [6] (setting [12]), the “FXN marker gene expression (qPCR)” value was “dose-dependent effects”. Further, in assay [8], the “expression of several genes involved in iron metabolism” value is given as “increase expression”.

As for `NCCS(=O)(=O)O` [taurine, 2-Aminoethane-1-sulfonic acid], in assay [1], the “survival in mouse FRDA models” value is “did not improve survival rates”.

B1: interferon γ-1b: treatment option for FRDA to increase FXN levels, dropped at phase 3 (protein, UniProt P01579 24-161, looked up)
Interferon gamma: QDPYVKEAENLKKYFNAGHSDVADNGTLFLGILKNWKEESDRKIMQSQIVSFYFKLFKNFKDDQSIQKSVETIKEDMNVKFFNSNKKKRDDFEKLTNYSVTDLNVQRKAIHELIQVMAELSPAAKTGKRKRSQMLFRG
Take B1: the outcome measures in assay [9] is reported as “failure to show any improvement”.

(Values after patent US20250017958A1, “COMBINATORIAL THERAPEUTIC APPROACH FOR FRIEDREICH'S ATAXIA” (University of Florida Research Foundation, Incorporated, priority 2021, published 2025).)
